{"source": "patent US20030220524A1", "about": "“Sulfur containing compounds” (priority 2000, published 2003)"}
{"system": "B1 leukemic cell line", "experiment": "MTT assay", "format": "cell-based, human", "conditions": "B1; 48 h; read-out: MTT50", "protocol": "(§1) All cell lines were assayed as asynchronously growing cells. Leukemic cell lines, OCI-AML-2, OCI-AML-3 (referred to hereafter as AML-2 and AML-3, respectively), NB-4, KK, B1, G2, and W1 were cultured in alpha-minimal essential medium (α-MEM) (Princess Margaret Hospital Media Services) supplemented with 10% fetal bovine serum (FBS) (Sigma, St. Louis, Mo.). Non-transformed, diploid fibroblast lines WI38 and IMR90, were cultured in α-MEM and MEM F-15, respectively supplemented with 10% FBS. Media for IMR90 cells was also supplemented with 1.5 g/L bicarbonate and 1 mM pyruvate. Breast tumour cell lines, MDA-231, SK-BR-3, MCF-7, ZR-751, and melanoma tumour cell lines, WM9, WM983, WM793, 1232, were grown in α-MEM supplemented with 10% fetal bovine serum. Prostate tumour cell lines, DU145 and PC-3, were grown in RPMI 1640 media supplemented with 10% FBS. All cell lines were cultured in the presence of penicillin/streptomycin. Mononucleated cells were isolated from normal bone marrow using Ficoll hypaque and then T-cell depleted. T-cell depletion was performed by incubating the mononucleated bone marrow cells in α-MEM at a concentration of 2×10^7 cells/mL with 10% absor FBS and 10% (v/v) sheep red blood cells for 4 to 16 h. Absor FBS was prepared beforehand by heating FBS at 56° C. for 1 h, incubating with sheep red blood cells at 0.5% (v/v) for 1 h and then filtering the FBS with a […]. The T-cell depleted, mononucleated cells were recovered using Ficoll hypaque and were maintained in α-MEM supplemented with 20% FBS and 10% 5637 ? nditioned media. 5637 conditioned media ? s previously harvested from confluent 5637 cells after a 3 day incubation. Normal bone marrow from bone marrow transplant donor was collected following informed consent according to institutional guidelines.\n(§2) Approximately 20 mg of each compound was dissolved in 5 mL of ACS grade acetone (Sigma) using a 5 mL volumetric flask. Stock solutions of the compounds were stored in the dark at −20° C. Compounds were diluted prior to each experiment.\n(§3) Adherent cells were seeded at 67×10^3 cells/mL in a 96 well plate (Falcon, Mississauga, Ontario) the day prior to exposure to compound. Suspension cells were seeded at 27×10^4 cells/mL in a 96 well plate the day of exposure to compound. Mononucleated, T-cell depleted normal bone marrow cells were seeded at 67×10^4 cells/mL in a 96 well plate the day of exposure to compound. Compounds and solvent control were added to cells and assayed in triplicate or sextuplet. Following 48 h of incubation at 37° C. with 5% CO2, 40 μL of a 5 mg/mL solution of 3-[4,5-dimethylthiazol-2-yl]-2,5-diphenyltetrazolium bromide (MTT) substrate (Sigma) in Dulbecco's phosphate-buffered saline (D-PBS) was added. After 4 h of incubation at 37° C. with 5% CO2, the resulting violet formazan precipitate was solubilized by the addition of 80 μL of a 0.01 M HCI, 10% sodium dodecyl sulfate (SDS; Sigma) solution overnight at 37° C. with 5% CO2. The plates were then analyzed using the BioRad Benchmark Microplate Reader (BioRad Laboratories, Hercules, Calif.) at 570 nm to determine the optical density of the samples. MTT data was analyzed using Prism 3.0 (GraphPad Software, Inc., San Diego, Calif.) by the Chou-Talalay method. MTT graphs shown are a representative experiment.\n(§4) Adherent cells were seeded at 67×10^3 cells/mL in a 96 well plate (Falcon, Mississauga, Ontario) the day prior to exposure to compound. Suspension cells were seeded at 27×10^4 cells/mL in a 96 well plate the day of exposure to compound. Mononucleated, T-cell depleted normal bone marrow cells were seeded at 67×10^4 cells/mL in a 96 well plate the day of exposure to compound. Compounds and solvent control were added to cells and assayed in triplicate or sextuplet. […]", "units": {"IC50": "µM"}}
{"compound": "CSSCS(=O)(=O)c1ccc(C)cc1", "note": "[Compound C, α-p-toluenesulfonyl dimethyl disulphide]", "IC50": 13}
{"system": "B1 leukemic cell line", "experiment": "MTT assay", "format": "cell-based, human", "conditions": "Homo sapiens, 48 h, read-out: MTT50", "protocol": "as §1, §2, §3, §4", "units": {"IC50": "µM"}}
{"compound": "CSCSSC", "note": "[Compound N, 2,3,5-trithiahexane]", "IC50": 94.4}
{"system": "B1 leukemic cell line", "experiment": "MTT assay", "format": "cell-based, human", "conditions": "Homo sapiens; B1; 48 h; read-out: MTT50", "protocol": "as §1, §2, §3, §4", "units": {"IC50": "µM"}}
{"compound": "CSSCC(=O)c1ccccc1", "note": "[Compound P, phenacyl methyl disulphide]", "IC50": 94.4}
{"compound": "CS(=O)(=O)CSSc1ccccc1", "note": "[E, 5-phenyl-2,4,5-trithiapentane 2,2-dioxide]", "IC50": 4.3}
{"compound": "CSSc1ccc([N+](=O)[O-])cc1", "note": "[M, methyl p-nitrophenyl disulphide]", "IC50": 12.7}
{"compound": "CCC(=O)OCSSc1ccccc1", "note": "[Compound Q, 1-phenyl-1,2-dithiapropyl propionate]", "IC50": 14.3}
{"system": "leukemic cells", "experiment": "Cell cycle and apoptosis by fixed PI and TUNEL", "format": "cell-based, human", "conditions": "in words", "protocol": "Adherent cell lines were plated at 35×10^4 cells/60 cm^2 dish the day before exposure to compound. Suspension cells were seeded at 25×10^4 cells/mL in a 6 well dish (Falcon) the day of exposure to compound. Mononucleated, T-cell depleted normal bone marrow cells were seeded at 50×10^4 cells/mL in a 6 well dish the day of exposure to compound. Cells were exposed to solvent control or approximate MTT50 and MTT30 concentrations of the compound. After 48 h of exposure to the compound, cells were harvested, fixed in 80% ethanol for 1 h on ice and labeled with 50 μg/mL propidium iodide (Sigma). Approximately 10^6 cells were analyzed using a XL-MCL flow cytometer (Coulter Corporation, Miami, Fla.) and a FACScalibar cytometer (Becton Dickinson, San Jose, Calif.). Profiles shown are a representative.\nAdherent cell lines were plated at 35×10^4 cells/60 cm^2 dish the day before exposure to compound. Suspension cells were seeded at 25×10^4 cells/mL in a 6 well dish (Falcon) the day of exposure to compound. Mononucleated, T-cell depleted normal bone marrow cells were seeded at 50×10^4 cells/mL in a 6 well dish the day of exposure to compound. Cells were exposed to solvent control or approximate MTT50 and MTT30 concentrations of the compound. After 48 h of exposure to the compound, cells were harvested and fixed with a final concentration of 4% formaldehyde. Fixed cells were stored at −20° C. in 70% ethanol for no more than 5 days. Approximately 10^5 cells were pelleted and labeled with 0.02 mM Biotin-dUTP and 12.5 U TdT enzyme in a 1× reaction buffer (200 mM potassium cacodylate, 25 mM Tris-HCl, 25 μg/mL bovine serum albumin, pH 6.6), 2.5 mM CoCl2 and 0.01 mM dTTP (Roche Molecular Biochemicals, Laval, QC, Canada) for 45 min at 37° C. Samples were washed and incubated in 200 μL of 1:1000 fluorescein isothiocyanate (FITC)-conjugated avidin (Sigma) in 4×SSC, 5% skim milk powder and 0.05% Tween-20 (Sigma). Following 1 h of mixing at room temperature, the samples were washed and resuspended in 500 μL of D-PBS containing 2.5 μg/mL DNase-free RNase (Boehringer Mannheim) and 10 μg/mL PI. Following a 30 min incubation at room temperature, cells were analyzed using a XL-MCL flow cytometer (Coulter Corporation, Miami, Fla.) and a FACScalibar cytometer (Becton Dickinson, San Jose, Calif.). Profiles shown are representative of one experiment."}
{"compound": "CSSCS(=O)(=O)c1ccc(C)cc1", "note": "[Compound C, α-p-toluenesulfonyl dimethyl disulphide]", "Cell cycle effect / apoptosis of leukemic cells (fixed PI and TUNEL)": "undergo apoptosis in all the phases of the cell cycle"}
{"compound": "COC(=O)CSSC", "note": "[H, methyl 3,4-dithiopentanoate]", "Cell cycle effect / apoptosis of leukemic cells (fixed PI and TUNEL)": "accumulation of leukemic cells in the G2/M phase of the cell cycle prior to the cells undergoing apoptosis"}
{"compound": "CSSCOC(C)=O", "note": "[I, 2,3-dithiabutyl acetate]", "Cell cycle effect / apoptosis of leukemic cells (fixed PI and TUNEL)": "undergo apoptosis in all the phases of the cell cycle"}
{"compound": "c1ccc(SSc2ccccc2)cc1", "note": "[D, diphenyl disulphide]", "Cell cycle effect / apoptosis of leukemic cells (fixed PI and TUNEL)": "undergo apoptosis in all the phases of the cell cycle"}
{"compound": "CS(=O)(=O)CSSc1ccccc1", "note": "[E, 5-phenyl-2,4,5-trithiapentane 2,2-dioxide]", "Cell cycle effect / apoptosis of leukemic cells (fixed PI and TUNEL)": "undergo apoptosis in all the phases of the cell cycle"}
{"compound": "CSSCCS(C)(=O)=O", "note": "[F, 2,3,6-trithiaheptane 6,6,-dioxide]", "Cell cycle effect / apoptosis of leukemic cells (fixed PI and TUNEL)": "accumulation of leukemic cells in the G2/M phase of the cell cycle prior to the cells undergoing apoptosis"}
